Data: paper PMC4754628 (Scientific Reports, 2016)

Legend:
[1] = system: Kv11.1-3.1; test: Quantitative Western blot of Kv11.1-3.1 expression and trafficking (FG/CG bands) after overnight drug treatment; type: cell-based, human; settings: for Trafficking Rescue?: Literature compounds screened for Kv11.1-3.1 trafficking rescue; for Trafficking Rescue? / Kv11.1-3.1 expression and trafficking rescue (FG band) by selective inhibitors of ALLN targets: Western blot; for Kv11.1-3.1 expression and trafficking rescue (FG band) by selective inhibitors of ALLN targets: Kv11.1-3.1 cells, single agents or cocktails
Procedure: HEK 293 cells were cultured at 37 °C (5% CO2) in Glutamax® Dulbecco’s modified Eagle’s Medium/Ham’s F-12 (Life Technologies, Grand Island, NY) supplemented with 1x Non-essential amino acids (Life Technologies, Grand Island, NY), 1x Penicillin/Streptomycin (Life Technologies, Grand Island, NY) and 10% fetal bovine serum (Sigma Aldrich, Saint Louis, MO). For pharmacological treatments, drugs were dissolved in DMSO and added to media at DMSO final concentrations < 0.2%. Cells were incubated in drug-containing media for 16–20 hours prior to assays.
Cells were washed with ice-cold PBS, harvested in ice-cold PBS, and pelleted by centrifugation at 500 g for 5 minutes. Cell pellets were resuspended with Radioimmunoprecipitation assay (RIPA) buffer (Sigma Aldrich, Saint Louis, MO) and rotated at 4 °C for 1 hour. Lysates were cleared by centrifugation at 16,000 g for 10 minutes and supernatants were analyzed for total protein concentration using a BCA kit (Pierce, Rockford, Illinois). […] Proteins were transferred onto 0.45 μm nitrocellulose membranes and incubated for 1hr in Odyssey® PBS blocking buffer (Li-Cor Biosciences, Lincoln, NE). Membranes were probed with anti-HA (1:5,000, GeneTex, Irvine, CA) and anti-NaK-ATPase (1:2,500, GeneTex, Irvine, CA) primary antibodies in Odyssey® PBS blocking buffer overnight at 4 °C. Anti-HA and anti-NaK-ATPase signals were detected using IRdye 800 donkey anti-rabbit (1:20,000, Li-Cor Biosciences, Lincoln, NE) and IRdye 680 donkey anti-mouse (1:20,000, Li-Cor Biosciences), respectively. The Li-Cor Odyssey® imaging system and software was used for antibody detection and quantification.

[2] = system: Kv11.1-1A; test: Quantitative immunofluorescence / high content imaging of Kv11.1-1A (sub-cellular and cell surface); type: cell-based, human
Procedure: (§1) Stable HEK 293 cell lines expressing either the full-length (1A) or deletion Kv11.1 (3.1) channel variant were plated onto 24 well ibiTreat® plates (ibidi, Martinsried, Germany) and grown until 80–90% confluent. For sub-cellular co-localization studies, cells were fixed with 4% paraformaldehyde in PBS for 15 minutes. Cells were simultaneously permeabilized, blocked, and quenched for background fluorescence by incubation in a PBS solution containing 0.1% Triton X-100, 10% normal goat serum, and 0.75% glycine for 15 minutes. Cells were probed with primary antibodies: anti-extracellular loop hERG (1:1000, Sigma Aldrich, Saint Louis, MO), anti-calnexin (1:1000, Abcam, Cambridge, MA), anti-58K Golgi protein (1:200, Abcam), anti-20s proteasome β1 (1:200, Santa Cruz Biotechnology, Dallas, TX). […]. Cell surface labeling with anti-hERG antibody was performed as described above. Cell images were captured with the Operetta® high content imaging system and quantified with Columbus® image analysis suite (both PerkinElmer, Waltham, MA).
Electrophysisology data analysis was performed using Axograph X® (Axograph, Berkley, CA) All data is presented as mean ± SEM unless specified. […] Microscopy data was analyzed with linear mixed models with fixed effects for the treatment variables with a random intercept by replicate/well – hERG and RFP levels were log2-transformed prior to analysis. […]

[3] = target: T1, Kv11.1-3.1 (Homo sapiens, UniProt Q12809)
[4] = system: Kv11.1-1A; settings: 1A expressing cells
[5] = system: Kv11.1-3.1; test: Quantitative immunofluorescence / high content imaging of Kv11.1-3.1 (sub-cellular and cell surface); type: cell-based, human
Procedure: as §1
Electrophysisology data analysis was performed using Axograph X® (Axograph, Berkley, CA) All data is presented as mean ± SEM unless specified. Unpaired T-tests, ANOVA, and subsequent Bonferroni corrections were completed using Prism (Graphpad, La Jolla, CA). Microscopy data was analyzed with linear mixed models with fixed effects for the treatment variables with a random intercept by replicate/well – hERG and RFP levels were log2-transformed prior to analysis. P values < 0.05 were accepted as significant.

[6] = system: Kv11.1-1A; test: Co-immunoprecipitation of HA-tagged Kv11.1-1A probed for ubiquitin; type: cell-based, human; settings: bortezomib 16 hours vs DMSO
Procedure: (§2) Dynabeads Protein G® (Life Technologies, Grand Island, NY) were prepared according to the manufacturer’s instructions and incubated with HA.11 anti-HA antibody (BioLegend, San Diego, CA) for 30 minutes and then fixed with BS[3] crosslinking reagent (ThermoFischer Scientific, Waltham, MA) to prevent antibody dissociation. Equal amounts of cell lysates from stably expressing Kv11.1 cell lines were prepared as before and then incubated with the prepared beads overnight at 4 °C. Beads were washed and proteins were eluted per the manufacturer’s instructions and visualized via SDS-PAGE. Membranes were probed with the antibodies described previously and anti-ubiquitin (1:1000, Abcam, Cambridge, MA). Antibody detection was performed as before.

[7] = system: Kv11.1-3.1; test: Co-immunoprecipitation of HA-tagged Kv11.1-3.1 probed for ubiquitin; type: cell-based, human; settings: bortezomib 16 hours vs DMSO
Procedure: as §2

[8] = target: T1, Kv11.1-3.1; settings: treated Kv11.1-3.1 cells, E4031 or DMSO controls, n = 16
[9] = system: hERG LQT2 mutants; settings: some LQT2 mutants; cited from earlier work

T1 sequence (Q12809 1-1063 isoform Q12809-7): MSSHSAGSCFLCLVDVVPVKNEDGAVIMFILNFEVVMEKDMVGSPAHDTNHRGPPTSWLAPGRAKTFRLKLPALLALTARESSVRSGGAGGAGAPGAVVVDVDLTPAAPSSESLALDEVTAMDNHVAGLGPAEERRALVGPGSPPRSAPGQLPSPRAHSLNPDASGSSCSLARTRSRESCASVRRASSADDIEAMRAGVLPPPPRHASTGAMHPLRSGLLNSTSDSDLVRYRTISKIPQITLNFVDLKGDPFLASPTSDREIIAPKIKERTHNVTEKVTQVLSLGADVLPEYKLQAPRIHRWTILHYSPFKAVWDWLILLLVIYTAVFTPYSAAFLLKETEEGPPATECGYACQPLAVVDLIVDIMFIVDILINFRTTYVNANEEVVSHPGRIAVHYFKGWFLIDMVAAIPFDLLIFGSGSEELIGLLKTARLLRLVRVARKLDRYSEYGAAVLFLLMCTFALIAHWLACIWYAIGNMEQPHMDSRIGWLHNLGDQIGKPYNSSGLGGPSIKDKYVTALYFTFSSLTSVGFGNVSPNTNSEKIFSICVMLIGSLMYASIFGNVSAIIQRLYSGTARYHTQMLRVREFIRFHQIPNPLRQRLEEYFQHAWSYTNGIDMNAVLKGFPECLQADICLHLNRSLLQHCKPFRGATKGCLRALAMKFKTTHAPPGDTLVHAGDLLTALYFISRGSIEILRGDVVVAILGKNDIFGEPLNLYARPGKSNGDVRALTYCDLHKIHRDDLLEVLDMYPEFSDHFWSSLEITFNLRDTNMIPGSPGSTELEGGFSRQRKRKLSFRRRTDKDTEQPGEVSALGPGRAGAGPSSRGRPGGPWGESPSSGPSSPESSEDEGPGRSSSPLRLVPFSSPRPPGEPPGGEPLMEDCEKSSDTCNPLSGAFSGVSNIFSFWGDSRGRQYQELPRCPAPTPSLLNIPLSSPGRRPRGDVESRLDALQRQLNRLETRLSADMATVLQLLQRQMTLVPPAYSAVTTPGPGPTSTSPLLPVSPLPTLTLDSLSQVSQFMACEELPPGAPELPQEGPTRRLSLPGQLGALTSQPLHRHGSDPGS

With COc1cc(N)c(Cl)cc1C(=O)NC1CCN(CCCOc2ccc(F)cc2)CC1OC (stereo not shown) [Cisapride] the “Trafficking Rescue?” value [1] was “No”.
For CCCNC(=O)[C@H]1O[C@@H]1C(=O)N[C@H](C(=O)N1CCC[C@H]1C(=O)O)[C@@H](C)CC [CA 078], the “Kv11.1-3.1 expression and trafficking rescue (FG band) by selective inhibitors of ALLN targets” value [1] was “only bortezomib was effective”.
In the case of CCc1ccccc1NC(=O)CSC(=O)NNC(=O)[C@H](Cc1c[nH]c2ccccc12)NC(=O)OC(C)(C)C [SID 26681509], the “Kv11.1-3.1 expression and trafficking rescue (FG band) by selective inhibitors of ALLN targets” value [1] is reported as “only bortezomib was effective”.
With CC(C)C[C@H](NC(=O)[C@H](Cc1ccccc1)NC(=O)c1cnccn1)B(O)O [bortezomib] the “elevation of Kv11.1 1A protein level (RFP-normalized fluorescence)” value ([2]; Kv11.1-1A cells cultured with drug) was “modest elevation”, the “ratio of surface Kv11.1-1A/RFP, slope m of linear regression” value ([2]; single cells, untreated m = 0.34) was 0.40 and the “cell membrane capacitance normalized peak tail current” value ([3]; bortezomib 10 nM treated Kv11.1-3.1 cells, n = 8) was 75.93 ± 11.84 pA/pF. The “effect on Kv11.1-3.1 deactivation rate kinetics (τ deactivation)” value ([3]; treated Kv11.1-3.1 cells vs controls, n = 3) was “no effect”, the “Kv11.1-1A band changes on Western blot” value [4] was “only increasing 1A CG expression” and the “elevation of steady-state Kv11.1-3.1 protein level (RFP-normalized fluorescence)” value ([5]; Kv11.1-3.1 cells cultured with drug, n = 3) was about 3 fold. For the same molecule, the “Kv11.1-3.1 proteasome domain expression increase” value ([5]; colocalization domain) was “not found to be significant”, the “Kv11.1-3.1 expression in cytoplasm, nuclear regions, ER and Golgi” value ([5]; subcellular segmentation and colocalization domains) was “significantly increased” and the “factor of increase of surface Kv11.1-3.1/RFP ratio” value ([5]; vs untreated Kv11.1-3.1) was 2. For the same molecule, the “increase of overall channel expression (Total hERG/NaK ATPase)” value ([1]; Kv11.1-3.1 HEK 293 cells, bortezomib 10 nM) was 6 fold, the “trafficking efficiency (FG/Total hERG)” value ([1]; Kv11.1-3.1 HEK 293 cells, bortezomib 10 nM, n = 4) was 25 ± 2% and the “Kv11.1-3.1 expression and trafficking rescue (FG band) by selective inhibitors of ALLN targets” value [1] was “effective”. The “ubiquitin signal of immunoprecipitated 1A channels” value [6] was “accumulation of ubiquitin signal”, the “ubiquitin signal of immunoprecipitated Kv11.1-3.1 channels” value [7] was “decrease in ubiquitin signal” and the “signal to background ratio in thallium flux assay” value [8] was “roughly 4 fold”.
For O=C(O)c1ccccc1Nc1ccc(CCc2ccc(Cl)c(Cl)c2)cc1 [PD-118057], the “Trafficking Rescue?” value [1] was “No”.
For COC(=O)Nc1nc2ccc(C(=O)c3cccs3)cc2[nH]1 [Nocodazole], the “Trafficking Rescue?” value [1] was “No”.
In the case of CC(=O)N[C@@H](CSC(=O)[C@]1([C@@H](O)C(C)C)NC(=O)[C@H](C)[C@@H]1O)C(=O)O [lactacystin], the “hERG expression in LQT2 mutants” value [9] is listed as “increase hERG expression” and the “trafficking rescue in LQT2 mutants” value [9] is listed as “trafficking was unable to be rescued”.
With N#Cc1ccc(COC[C@H]2O[C@@H](n3c(NCc4ccc(Cl)c(Cl)c4)nc4c(N)ncnc43)[C@H](O)[C@@H]2O)cc1 [VER-155008] the “Trafficking Rescue?” value [1] was “No”.
For O=C(O)/C(S)=C/c1ccc(I)cc1 [PD 150606], the “Kv11.1-3.1 expression and trafficking rescue (FG band) by selective inhibitors of ALLN targets” value [1] was “only bortezomib was effective”.
With C[N+](C)(C)CCOC(N)=O.[Cl-] [Carbamoylcholine Chloride] the “Trafficking Rescue?” value [1] was “No”.
